Data taken from patent US4594356A, “Method for inducing mydriasis in animals” (Key Pharmaceuticals, Inc., priority 1985, dated 1986).
Read-outs that look alike come from different tables or passages of the source.

Key:
[1] = tested on: eye; conditions: in vivo; cited from earlier work
[2] = tested on: eye; conditions: cited from earlier work; for ocular sympathomimetic activity: in vivo; for potency relative to dipivalyl epinephrine: on a molar basis
[3] = Half-life of adrenalone diesters (R methyl, R1 = R2); assay type: in vitro ADME; conditions: R is methyl, medium not stated, read-out: half-life (t1/2)
Text: Further, it should be noted that R is preferrably methyl.

[4] = tested on: intraocular pressure; conditions: cited from earlier work
[5] = Enzymatic hydrolysis in iris/ciliary body homogenate at 37° C.; assay type: in vitro ADME, New Zealand albino rabbits; conditions: Iris/ciliary body 10% homogenate, pH 7.4, 37° C.
Procedure: (§1) The stability of the ethyl succinyl derivative in isotonic saline buffer was determined in order to contrast the rates of hydrolysis of a chemical system with those of the ocular enzymatic systems. Ocular tissues were obtained from New Zealand albino rabbits. Homogenates were prepared in isotonic saline with a potassium phosphate buffer pH 7.4. High pressure liquid chromatography systems with spectrophotometric (254 nm) and electrochemical detection were used for determination.

[6] = tested on: pupil; test: Mydriatic study: pupil diameter difference between drug-treated and saline-treated eye in normal albino rabbits; assay type: in vivo, New Zealand male albino rabbits; conditions: drug eye vs saline eye difference
Procedure: Normal New Zealand male albino rabbits weighing from 2 to 3 kg. were used in the studies. The animals were placed in fiberglass restraining cages at least a half hour before the experiment and remained there throughout the test. The cages were located in a light and temperature controlled room. Pupil diameter was measured with a monostat vernier caliper held at a constant distance from observer and animal eyes. Drug solutions were formulated by dissolving the test agent in 0.9% saline solutions.
In the test procedure, a standard dose volume of 0.05 ml of the drug solution was applied to one eye and 0.9% saline was applied to the other eye of the same animal. The differences in the same animals between pupil diameter in millimeters of the eye with drug applied against the other eye with only saline instilled were recorded.
The pupillary dose response results are shown below in Table I.

[7] = Enzymatic hydrolysis in aqueous humor at 37° C.; assay type: in vitro ADME, New Zealand albino rabbits
Procedure: as §1

[8] = Enzymatic hydrolysis in human plasma at 37° C.; assay type: in vitro ADME
[9] = Stability in isotonic saline buffer pH 7.4 at 37° C.; assay type: physicochemical; conditions: Isotonic saline pH 7.4, 37° C.
Procedure: as §1

[10] = Enzymatic hydrolysis in corneal tissue homogenate at 37° C.; assay type: in vitro ADME, New Zealand albino rabbits; conditions: Corneal tissue 10% homogenate, pH 7.4, 37° C.
Procedure: as §1

[11] = tested on: intraocular pressure; conditions: cited from earlier work; for ocular tension (intraocular pressure) reduction: clinical study
[12] = tested on: eye; conditions: topical, prolonged usage; cited from earlier work
[13] = Ocular distribution after topical administration of the diester; assay type: in vivo; conditions: after topical administration of compound of Formula I (formed by hydrolysis / reduction-hydrolysis)
Text: Thus, topical adminstration of a compound of Formula I to the eye of an animal effectively induces pupil diameter enlargement and lowers intraocular pressure for a limited duration as a novel type of site-specific delivery system for epinephrine without the concomitant appearance of any significant undesirable side-effects associated with the prior art.

[14] = tested on: eye; conditions: cited from earlier work
[15] = tested on: pupil; conditions: 2% solution; cited from earlier work
[16] = tested on: glaucoma; conditions: cited from earlier work

SMILES: CNCC(=O)c1ccc(OC(=O)C(C)(C)C)c(OC(=O)C(C)(C)C)c1 [dipivalyl]
- recovery of normal vision [1]: did not achieve faster recovery of normal vision
- ocular sympathomimetic activity [2]: High ocular sympathomimetic activity
- potency relative to dipivalyl epinephrine [2]: more potent on a molar basis than the successful prodrug of epinephrine, dipivalyl epinephrine

SMILES: CCCC(=O)Oc1ccc(C(=O)CNC)cc1OC(=O)CCC [R1 = R2 (2)]
- half-life [3]: 2.13 min

SMILES: CC(C)NCC(O)c1ccc(O)c(O)c1 (stereo not drawn) [Isoproterenol]
- intraocular pressure reduction ([4]; in vivo): satisfactorily reduced intraocular pressure
- mydriasis ([4]; in vivo): causing mydriasis
- serious side-effects ([4]; treatment of glaucoma): taachycardia, weakness, and palpatations were observed

SMILES: CCOC(=O)CCC(=O)Oc1ccc(C(=O)CNC)cc1OC(=O)CCC(=O)OCC [0,0-di(ethylsuccinyl) adrenalone hydroperchlorate]
- k (hydrolysis rate constant) [5]: 7.91 min^-1 × 10^-1
- half-life ([5]; rabbit): 0.88 min
- Pupil diameter (X ± S.E.) ([6]; 1.0×10^-2 M, 10 minutes): 0.34 mm
- Pupil diameter (X ± S.E.) ([6]; 1.0×10^-2 M, 20 minutes): 0.43 mm
- Pupil diameter (X ± S.E.) ([6]; 1.0×10^-2 M, 30 minutes): 1.27 mm
- Pupil diameter (X ± S.E.) ([6]; 1.0×10^-2 M, 60 minutes): 1.42 mm
- Pupil diameter (X ± S.E.) ([6]; 1.0×10^-2 M, 120 minutes): 0.18 mm
- Pupil diameter (X ± S.E.) ([6]; 1.0×10^-2 M, 180 minutes): 0.37 mm
- Pupil diameter (X ± S.E.) ([6]; 1.5×10^-2 M, 10 minutes): 0.33 mm
- Pupil diameter (X ± S.E.) ([6]; 1.5×10^-2 M, 20 minutes): 0.80 mm
- Pupil diameter (X ± S.E.) ([6]; 1.5×10^-2 M, 30 minutes): 1.10 mm
- Pupil diameter (X ± S.E.) ([6]; 1.5×10^-2 M, 60 minutes): 2.13 mm
- Pupil diameter (X ± S.E.) ([6]; 1.5×10^-2 M, 120 minutes): 0.34 mm
- Pupil diameter (X ± S.E.) ([6]; 1.5×10^-2 M, 180 minutes): 0.16 mm
- Pupil diameter (X ± S.E.) ([6]; 2.0×10^-2 M, 10 minutes): 0.69 mm
- Pupil diameter (X ± S.E.) ([6]; 2.0×10^-2 M, 20 minutes): 1.12 mm
- Pupil diameter (X ± S.E.) ([6]; 2.0×10^-2 M, 30 minutes): 1.64 mm
- Pupil diameter (X ± S.E.) ([6]; 2.0×10^-2 M, 60 minutes): 3.11 mm
- Pupil diameter (X ± S.E.) ([6]; 2.0×10^-2 M, 120 minutes): 0.79 mm
- Pupil diameter (X ± S.E.) ([6]; 2.0×10^-2 M, 180 minutes): 0.31 mm
- Pupil diameter (X ± S.E.) ([6]; 2.4×10^-3 M, 10 minutes): 0.15 mm
- Pupil diameter (X ± S.E.) ([6]; 2.4×10^-3 M, 20 minutes): 0.18 mm
- Pupil diameter (X ± S.E.) ([6]; 2.4×10^-3 M, 30 minutes): 0.20 mm
- Pupil diameter (X ± S.E.) ([6]; 2.4×10^-3 M, 60 minutes): 0.30 mm
- Pupil diameter (X ± S.E.) ([6]; 2.4×10^-3 M, 120 minutes): 0.08 mm
- Pupil diameter (X ± S.E.) ([6]; 2.4×10^-3 M, 180 minutes): 0.11 mm
- Pupil diameter (X ± S.E.) ([6]; 2.5×10^-2 M, 10 minutes): 0.44 mm
- Pupil diameter (X ± S.E.) ([6]; 2.5×10^-2 M, 20 minutes): 1.99 mm
- Pupil diameter (X ± S.E.) ([6]; 2.5×10^-2 M, 30 minutes): 2.90 mm
- Pupil diameter (X ± S.E.) ([6]; 2.5×10^-2 M, 60 minutes): 3.29 mm
- Pupil diameter (X ± S.E.) ([6]; 2.5×10^-2 M, 120 minutes): 1.66 mm
- Pupil diameter (X ± S.E.) ([6]; 2.5×10^-2 M, 180 minutes): 0.22 mm
- Pupil diameter (X ± S.E.) ([6]; 5.0×10^-3 M, 10 minutes): 0.20 mm
- Pupil diameter (X ± S.E.) ([6]; 5.0×10^-3 M, 20 minutes): 0.56 mm
- Pupil diameter (X ± S.E.) ([6]; 5.0×10^-3 M, 30 minutes): 0.82 mm
- Pupil diameter (X ± S.E.) ([6]; 5.0×10^-3 M, 60 minutes): 0.78 mm
- Pupil diameter (X ± S.E.) ([6]; 5.0×10^-3 M, 120 minutes): 0.46 mm
- Pupil diameter (X ± S.E.) ([6]; 5.0×10^-3 M, 180 minutes): 0.58 mm
- k (hydrolysis rate constant) [7]: 5.09 min^-1 × 10^-1
- half-life ([7]; rabbit): 1.36 min
- half-life [8]: 1.01 min
- k (hydrolysis rate constant) [8]: 6.68 min^-1 × 10^-1
- k (hydrolysis rate constant) [9]: 0.04 min^-1 × 10^-1
- half-life ([9]; isotonic saline buffer): 173 min
- k (hydrolysis rate constant) [10]: 3.08 min^-1 × 10^-1
- half-life ([10]; rabbit): 2.25 min

SMILES: CNC[C@@H](O)c1ccc(O)c(O)c1 [d-adrenalin]
- ocular tension (intraocular pressure) reduction [11]: do not

SMILES: CNCC(=O)c1ccc(OC(=O)C=Cc2ccccc2)c(OC(=O)C=Cc2ccccc2)c1 [R1 = R2 (5)]
- half-life [3]: 10.1 min

SMILES: CNC[C@H](O)c1ccc(O)c(O)c1 [epinephrine]
- mydriasis (side effect) [12]: frequently causes mydriasis
- retinal maculopathy (side effect) [12]: sometimes retinal maculopathy
- ocular distribution [13]: found only in the uveal (iris-ciliary body) tissues

SMILES: CNCC(=O)c1ccc(OC(=O)CC(C)C)c(OC(=O)CC(C)C)c1 [R1 = R2 (6)]
- half-life [3]: 19.2 min

SMILES: CCN(CC)C(=O)CCC(=O)Oc1ccc(C(=O)CNC)cc1OC(=O)CCC(=O)N(CC)CC [R1 = R2 (4)]
- half-life [3]: 8.55 min

SMILES: CCOC(=O)CCC(=O)Oc1ccc(C(=O)CNC)cc1OC(=O)CCC(=O)OCC [R1 = R2 (1)]
- half-life [3]: 1.01 min

SMILES: CNCC(=O)c1ccc(OC(=O)C(C)(C)C)c(OC(=O)C(C)(C)C)c1 [R1 = R2 (7)]
- half-life [3]: 57.8 min

SMILES: CCCCCC(=O)Oc1ccc(C(=O)CNC)cc1OC(=O)CCCCC [R1 = R2 (3)]
- half-life [3]: 2.96 min

SMILES: CNCC(=O)c1ccc(O)c(O)c1 [adrenalone]
- mydriasis ([14]; high concentrations): will not produce mydriasis
- reduction in the eye to adrenalin ([14]; topical administration): not reduced in the eye to the active adrenalin
- intraocular pressure reduction ([11]; 2% solution, patients suffering from glaucoma): did not cause any reduction in the intraocular pressure
- ocular tension (intraocular pressure) reduction [11]: do not
- ocular distribution [13]: found in every compartment of the eye
- mydriatic activity [15]: only a minimal level of mydriatic activity

SMILES: CC(C)NCC(=O)c1ccc(O)c(O)c1 [3,4-dihydroxy-2-(isopropylamino) acetophenone]
- mydriatic activity (side-effect) ([16]; in vivo): toxic, harmful or deleterious side-effect
- treatment of glaucoma ([16]; in vivo): successful treatment of glaucoma
- concentration needed to achieve the desired result ([16]; treatment of glaucoma): 3%

SMILES: CNCC(=O)c1ccc(OC(=O)CC(C)C)c(OC(=O)CC(C)C)c1 [diisovaleryl]
- ocular sympathomimetic activity [2]: High ocular sympathomimetic activity
- potency relative to dipivalyl epinephrine [2]: more potent on a molar basis than the successful prodrug of epinephrine, dipivalyl epinephrine

SMILES: CNC[C@H](O)c1ccc(O)c(O)c1 [1-adrenaline]
- ocular tension (intraocular pressure) reduction [11]: lowered ocular tension
